# Values of other authors as cited in patent publication US20240196931A1, “BOTANICAL SUPPLEMENT AND METHOD FOR PREVENTING DISEASES, PROMOTING GROWTH AND SURVIVAL OF AN ANIMAL BY USING THE SAME” (ACADEMIA SINICA, priority 2022, published 2024).
# Columns and labels:
# sepsis = sepsis induced by endotoxin or cecal ligation puncture
# [1] = tested on: melanoma and breast cancer cell metastasis; settings: in vitro and in xenograft or allograft mouse tumor models
smiles,measurement,setting,value
"CC/C=C\C/C=C\C/C=C\CCCCCCCC(=O)OC[C@H](CO[C@@H]1O[C@H](CO)[C@H](O)[C@H](O)[C@H]1O)OC(=O)CCCCCCC/C=C\C/C=C\C/C=C\CC [dLGG, 1,2-di-O-α-linolenoyl-3-O-β-galactopyranosyl-sn-glycerol]",Effect against sepsis in mouse,sepsis,preventive and therapeutic effect
same,Effect on melanoma and breast cancer cell metastasis,[1],suppressive effects
